Laboratory results from patent US9701676B2, “Pro-neurogenic compounds” (Board of Regents of The University of Texas System, priority 2012, dated 2017).

System: proliferating neural precursor cells in the hippocampus (subgranular layer of the dentate gyrus)
Test: standard in vivo hippocampal neurogenesis assay (BrdU labelling, week-long intracranial mini-pump infusion)
Set-up: species or system mouse (C57/B6)
Conditions: 10 μM concentration, seven days of infusion at 0.5 μL/hour, daily IP BrdU; four 12 week old adult male C57/B6 mice; vehicle 14.5
Description: Compounds were administered at a concentration of 10 μM for each molecule. After seven days of infusion at a constant rate of 0.5 μL/hour, a total of 84 μL of volume will have left the pump (0.00084 μMoles) and entered the cerebrospinal fluid. The average volume of a brain from a 12 week old male, C57/B6 mouse in the study is 500 mm^3. […] Under these conditions, at the end of one week of infusion each compound would be present at 1.7 μMolar concentration. Since the actual amount of chemical compound in the brain is likely to be only a fraction of this predicted level, it is reasonable to estimate that compounds were administered at mid to low-nanomolar concentrations.
During compound infusion, animals were intraperitoneally (IP) injected daily with the thymidine analog, bromodeoxyuridine (BrdU), as a means of scoring the birth and survival of proliferating neural precursor cells in the hippocampus. Because both social interaction and voluntary exercise are known to stimulate hippocampal neurogenesis, mice were housed individually without access to running wheels throughout the screening period. Following the week-long period of compound administration, animals were perfused and sacrificed. Dissected brain tissue was fixed, embedded, sectioned, stained with antibodies to BrdU, and evaluated by light microcopy as a means of quantifying neurogenesis and survival of newborn neural precursor cells localized to the subgranular layer of the dentate gyms on the brain hemisphere contralateral to the side of mini-pump cannulation. Every fifth section throughout the entire rostral-caudal extent of the hippocampus was analyzed, and the total number of BrdU+ cells was normalized against the measured volume of the dentate gyms.
Intracranial infusions of either fibroblast growth factor 2 (FGF-2) or artificial cerebral spinal fluid (aCSF) vehicle via the same, week-long protocol were employed as positive and negative controls.
Compounds were evaluated for pro-neurogenic efficacy/neuroprotection in a standard in vivo hippocampal neurogenesis assay at 10 μM concentration in four 12 week old adult male C57/B16 mice.

Row | Compound | (×10^−06) BrdU+ cells/mm^3 dentate gyrus
1 | CCOC(=O)C1=NCc2c(c3ccccc3n2S(=O)(=O)c2ccc(C)cc2)N1 [P7C3-S247, ethyl 5-tosyl-4,5-dihydro-1H-pyrimido[5,4-b]indole-2-carboxylate] | 31.1 (×10^−06) BrdU+ cells/mm^3
2 | N[C@@H](Cc1c[nH]c2ccccc12)C(=O)O [P7C3-S248, L-tryptophan, reference compound] | 20.1 (×10^−06) BrdU+ cells/mm^3
3 | N[C@@H](Cc1c[nH]c2ccc(O)cc12)C(=O)O [P7C3-S249, L-5-hydroxy-tryptophan, reference compound] | 34.8 (×10^−06) BrdU+ cells/mm^3
4 | COc1cccc(N(CC(O)Cn2c3ccc(Br)cc3c3cc(Br)ccc32)S(C)(=O)=O)c1 (centres unmarked) [P7C3-S251, N-(3-(3,6-dibromo-9H-carbazol-9-yl)-2-hydroxypropyl)-N-(3-methoxyphenyl)methanesulfonamide] | 17.7 (×10^−06) BrdU+ cells/mm^3
5 | COc1cccc(N(CC(O)Cn2c3ccc(Br)cc3c3cc(Br)ccc32)S(=O)(=O)c2ccccc2)c1 (centres unmarked) [P7C3-S252, N-(3-(3,6-dibromo-9H-carbazol-9-yl)-2-hydroxypropyl)-N-(3-methoxyphenyl)benzenesulfonamide] | 33.2 (×10^−06) BrdU+ cells/mm^3
6 | COc1cccc(N(CC(O)Cn2c3ccc(Br)cc3c3cc(Br)ccc32)S(=O)(=O)c2ccccc2C(F)(F)F)c1 (centres unmarked) [P7C3-S253, N-(3-(3,6-dibromo-9H-carbazol-9-yl)-2-hydroxypropyl)-N-(3-methoxyphenyl)-2-(trifluoromethyl)benzenesulfonamide] | 28.5 (×10^−06) BrdU+ cells/mm^3
7 | COc1ccc(S(=O)(=O)N(CC(O)Cn2c3ccc(Br)cc3c3cc(Br)ccc32)c2cccc(OC)c2)cc1 (centres unmarked) [P7C3-S254, N-(3-(3,6-dibromo-9H-carbazol-9-yl)-2-hydroxypropyl)-4-methoxy-N-(3-methoxyphenyl)benzenesulfonamide] | 25.5 (×10^−06) BrdU+ cells/mm^3
8 | COc1cccc(N(CC(F)Cn2c3ccc(Br)cc3c3cc(Br)ccc32)S(C)(=O)=O)c1 (centres unmarked) [P7C3-S256, N-(3-(3,6-dibromo-9H-carbazol-9-yl)-2-fluoropropyl)-N-(3-methoxyphenyl)methanesulfonamide] | 31.5 (×10^−06) BrdU+ cells/mm^3
9 | COc1cccc(N(CC(F)Cn2c3ccc(Br)cc3c3cc(Br)ccc32)S(=O)(=O)c2ccccc2C(F)(F)F)c1 (centres unmarked) [P7C3-S257, N-(3-(3,6-dibromo-9H-carbazol-9-yl)-2-fluoropropyl)-N-(3-methoxyphenyl)-2-(trifluoromethyl)benzenesulfonamide] | 29.4 (×10^−06) BrdU+ cells/mm^3
10 | COc1ccc(S(=O)(=O)N(CC(F)Cn2c3ccc(Br)cc3c3cc(Br)ccc32)c2cccc(OC)c2)cc1 (centres unmarked) [P7C3-S258, N-(3-(3,6-dibromo-9H-carbazol-9-yl)-2-fluoropropyl)-4-methoxy-N-(3-methoxyphenyl)benzenesulfonamide] | 29.8 (×10^−06) BrdU+ cells/mm^3
11 | CCOC(=O)c1ncc2[nH]c3ccccc3c2n1 [P7C3-S262, ethyl 5H-pyrimido[5,4-b]indole-2-carboxylate] | 18 (×10^−06) BrdU+ cells/mm^3
12 | O=S(=O)(NCC(O)Cn1c2ccc(Br)cc2c2cc(Br)ccc21)C(F)(F)F (centres unmarked) [P7C3-S264, N-(3-(3,6-dibromo-9H-carbazol-9-yl)-2-hydroxypropyl)-1,1,1-trifluoromethanesulfonamide] | 20.6 (×10^−06) BrdU+ cells/mm^3
13 | CCCN(CCC)C(=O)Cc1c(-c2ccc(Cl)cc2)nc2ccc(Cl)cn12 [P7C3-S265, 6-Chloro-2-(4-chlorophenyl)-N,N-dipropyl-imidazo[1,2-a]pyridine-3-acetamide, reference compound] | 29.3 (×10^−06) BrdU+ cells/mm^3
14 | CC(C)CCC[C@@H](C)[C@H]1CC[C@H]2[C@@H]3CCC4=CC(=NO)CC[C@]4(C)[C@H]3CC[C@]12C [P7C3-S266, Cholest-4-en-3-one, oxime, reference compound] | 42.3 (×10^−06) BrdU+ cells/mm^3
15 | Cc1c(C)c2c(c(C)c1O)CC[C@@](C)(CCC[C@H](C)CCC[C@H](C)CCCC(C)C)O2 [P7C3-S267, (+)-a-tocopherol, reference compound] | 21.4 (×10^−06) BrdU+ cells/mm^3
16 | N#Cc1[nH]c2ccccc2c1N [P7C3-S268, 3-amino-1H-indole-2-carbonitrile] | 32.1 (×10^−06) BrdU+ cells/mm^3
17 | O=c1[nH]c(=O)c2[nH]c3ccc(Br)cc3c2[nH]1 [P7C3-S269, 8-bromo-1H-pyrimido[5,4-b]indole-2,4(3H, 5H)-dione] | 35.4 (×10^−06) BrdU+ cells/mm^3
18 | CN(C)c1nc(O)c2[nH]c3ccc(Br)cc3c2n1 [P7C3-S270, 8-bromo-2-(dimethylamino)-5H-pyrimido[5,4-b]indol-4-ol] | 28 (×10^−06) BrdU+ cells/mm^3
19 | COc1nc(N(C)C)nc2c3cc(Br)ccc3n(C)c12 [P7C3-S275, 8-bromo-4-methoxy-N,N,5-trimethyl-5H-pyrimido[5,4-b]indol-2-amine] | 20.5 (×10^−06) BrdU+ cells/mm^3
20 | COc1ccc2[nH]c(C#N)c(N)c2c1 [P7C3-S276, 3-amino-5-methoxy-1H-indole-2-carbonitrile] | 29.3 (×10^−06) BrdU+ cells/mm^3
21 | O=C(NCC(O)Cn1c2ccc(Br)cc2c2cc(Br)ccc21)Nc1ccccc1 (centres unmarked) [P7C3-S277, 1-(3-(3,6-dibromo-9H-carbazol-9-yl)-2-hydroxypropyl)-3-phenylurea] | 20.3 (×10^−06) BrdU+ cells/mm^3
22 | Cc1ccc2c(c1)c1cc(Br)ccc1n2C [P7C3-S280, 3-bromo-6,9-dimethyl-9H-carbazole] | 25.1 (×10^−06) BrdU+ cells/mm^3
23 | FGF-2: fibroblast growth factor 2, intracranial infusion employed as positive control | 28.4 (×10^−06) BrdU+ cells/mm^3
